Source: paper PMC11267533, “Ligandability at the Membrane Interface of GPx4 Revealed through a Reverse Micelle Fragment Screening Platform” (JACS Au, 2024)

Columns and labels:
[1] = Fragment partitioning in DHPC/DMPC bicelles by 2D 1H-1H NOESY; assay type: physicochemical; details: 5 mM fragment, 100% D2O
Description: To confirm partitioning behavior, we tested fragments in DHPC/DMPC bicelles, which use a bulk aqueous solvent, and the hydrophobic phase is confined to the bicelle interior. To successfully collect NOESY data, the sample solvent was composed of 100% D2O. […] Together, the results highlight the partitioning behavior of fragments that bind to GPx4. Hydrophilic, hydrophobic, or fragments that partition to the surfactant shell are all capable of binding to the membrane-bound state of GPx4 and may be detected using this method.
Partitioning coefficients for fragment hits and analogues were calculated using a Marvin Log D calculator (Chemaxon) and were used to prioritize fragments for 2D NOESYs. mmRMs were premade as previously described and loaded with 5 mM dried fragment 1, 5, or 6 before shaking overnight. A high concentration of fragments is needed for these experiments to observe the intermolecular NOEs between the fragments and the membrane model components. For the DHPC/DMPC samples, the q = 1.0 bicelles were constructed routinely,[55] as described in the Supporting Information, with an additional step to ensure the complete removal of water before experimentation. An aliquot of buffer (100 mM Bis-Tris pH 6.0, 100 mM NaCl, and 10 mM DTT) was frozen and freeze-dried overnight to remove residual water. The dried buffer was then resuspended in 100% D2O, mixed, and frozen before another round of freeze-drying. The components were then resuspended in 100% D2O again before being incorporated into the DHPC fraction of the bicelle. The DHPC solution was then mixed with dried DMPC, and bicelle formation proceeded. The NOESY experimental design was based on a previous work.[60] All NMR spectra were collected at 25 °C on a 700 MHz Bruker Avance III instrument. The 2D data was collected with a 90° pulse width between 10.2 and 11.0 μs, which was optimized prior to each experiment. 128 complex increments were collected in the State-TPPI mode with 8 scans per increment, 2 s recycle time, and 250 ms mixing time. […]

[2] = target: T1, aqueous (water-solubilized) GPx4 (Homo sapiens, UniProt P36969, U73G); experiment: 15N-HSQC CSP binding experiment with GPx4 in bulk aqueous conditions; details: for Binding to aqueous GPx4 (CSPs versus mmRM): 400 μM fragment, 100 μM GPx4, 1% DMSO; for Binding to aqueous GPx4 (CSPs): 15 mM fragment, 100 μM GPx4, 5% DMSO
T1 construct: Truncated U46G-GPx4 with a TEV cleavable poly-histidine tag was inserted into vector; poly-histidine tag with TEV cleavage site; host or cells: BL21 (DE3) E. coli
T1 sequence (P36969 1-170 isoform P36969-2 U46G): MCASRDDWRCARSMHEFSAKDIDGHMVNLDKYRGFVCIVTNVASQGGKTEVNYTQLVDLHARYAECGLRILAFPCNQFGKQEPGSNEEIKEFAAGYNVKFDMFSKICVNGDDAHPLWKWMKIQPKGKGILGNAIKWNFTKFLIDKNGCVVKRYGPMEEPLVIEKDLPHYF
Description: Next, we sought to understand whether fragment hits were solely bound to the membrane-embedded form of GPx4 or could also bind to the aqueous form. We performed aqueous binding experiments with 3 fragment hits with varying hydrophobicities. Of the fragment hits with Kd < 1 mM, the most hydrophobic fragment (fragment 5, cLog D 2.05, 5-hydroxy-1,3-benzoxathiol-2-one) and a hydrophilic fragment with the strongest affinity (fragment 6, cLog D −2.14, (2-methoxyethyl)(4-pyridinylmethyl)amine hydrochloride) were selected, along with a compound with an amphipathic structure and only modest hydrophobicity (fragment 1, cLog D 1.05, 4-(phenylamino)-1,2-dihydropyridin-2-one). Aqueous GPx4 was combined with 400 μM of either fragments 1, 5, or 6 to directly compare to the mmRM experiments. […] Since our fragments have variable degrees of solubility and partitioning, we realized that a hydrophilic fragment like 6 may partition into the water core of the mmRM, essentially causing a concentration effect as observed previously.[32],[33] To rule this out, the concentration of the fragments was increased to 15 mM in an aqueous sample, which would be the effective concentration if all of the fragments partitioned completely into the RM water core. […] DLS measurements were also collected to check for fragment aggregation in the aqueous conditions.[58] […] Inspection of ^1H NMR spectra confirmed that the aggregation observed at high concentration of fragments 1 and 5 is a small portion of the overall fragment concentration and that most of the fragment is in solution.
Fragments 1, 5, and 6 were selected to perform proof-of-concept experiments in bulk aqueous conditions. 400 μM and 15 mM aliquots of fragment were vacuum-dried overnight to remove excess DMSO. An apo GPx4 reference was collected with 1% DMSO or 5% DMSO to ensure that CSP calculations took into account DMSO needed for fragment solubilization. 100 μM GPx4 was added to the dried fragments, and DMSO was added to a total of 1% for the 400 μM and 5% for the 15 mM fragment experiments. These percentages were the lowest amounts needed to solubilize the fragments in solution. Prior to experimentation, the pH of the sample was checked to ensure that no change was observed upon the addition of the fragments. However, the 100 mM Bis-Tris at pH 6.0 ensured that the pH was not altered. ^15N-HSQC experiments were collected, and CSPs were analyzed and compared to the top-shifting resonances determined from the mmRM experiments. DLS measurements were collected to assess fragment aggregation in the aqueous conditions using a Malvern Zetasizer Nano-S instrument.

[3] = Fragment partitioning in DLPC/DPC mmRMs by 2D 1H-1H NOESY; assay type: physicochemical; details: 5 mM fragment, deuterated pentane and hexanol, no GPx4
Description: We sought to understand the potential membrane partitioning of these fragments by evaluating their behavior in mmRMs, again using fragments 1, 5, and 6 as our benchmarks. To evaluate fragment partitioning in the mmRM system, 2D ^1H–^1H NOESY experiments were performed, which report on the spatial proximity of intra- and intermolecular nuclei. […] The mmRMs were constructed from deuterated pentane and hexanol to reduce solvent signal and associated NOESY artifacts, which were still present, but NOESY measurements were possible.[60] […] Fragment 5 was the most hydrophobic fragment hit from this screen with a predicted cLog D of ∼2. […] A lack of NOEs to pentane is due to the necessity of using deuterated pentane for artifact reduction and attempts to directly observe solvent NOEs failed. The most hydrophilic fragment, fragment 6 with a predicted cLog D of about −2, is expected to predominantly have intermolecular interactions with the water phase of the mmRM (Figures 5c and S4c). However, interference from the water peak introduced streaking and precluded the visualization of clear cross-peaks.
Partitioning coefficients for fragment hits and analogues were calculated using a Marvin Log D calculator (Chemaxon) and were used to prioritize fragments for 2D NOESYs. mmRMs were premade as previously described and loaded with 5 mM dried fragment 1, 5, or 6 before shaking overnight. A high concentration of fragments is needed for these experiments to observe the intermolecular NOEs between the fragments and the membrane model components. For the DHPC/DMPC samples, the q = 1.0 bicelles were constructed routinely,[55] as described in the Supporting Information, with an additional step to ensure the complete removal of water before experimentation. An aliquot of buffer (100 mM Bis-Tris pH 6.0, 100 mM NaCl, and 10 mM DTT) was frozen and freeze-dried overnight to remove residual water. The dried buffer was then resuspended in 100% D2O, mixed, and frozen before another round of freeze-drying. […]

Row | Compound | Partitioning in bicelles (intermolecular NOEs) [1] | Binding to aqueous GPx4 (CSPs versus mmRM) [2] | Binding to aqueous GPx4 (CSPs) [2] | Partitioning in mmRM (intermolecular NOEs) [3] | CSPs of aqueous GPx4 ([2]; 400 μM analogue, 1.5% DMSO)
1 | O=c1cc(Nc2ccccc2)cc[nH]1 [Fragment 1, 4-(phenylamino)-1,2-dihydropyridin-2-one] | partitions to the bicelle | do not bind strongly to the aqueous form of the protein | neither produced significant CSPs | clear NOE cross-peaks to the surfactant shell | 
2 | O=c1oc2c(-c3ccc(Cl)c(Cl)c3)cc(O)cc2s1 [Analog 5.5] |  |  |  |  | little to no shifting
3 | O=c1oc2ccc(O)cc2s1 [Fragment 5, 5-hydroxy-1,3-benzoxathiol-2-one] | full partitioning into the hydrophobic core of the bicelles | do not bind strongly to the aqueous form of the protein | does produce some CSPs that could be detected by a soluble screen | the majority of the fragment must reside in the alkane phase of the reverse micelle | 
4 | COCCNCc1ccncc1.Cl [Fragment 6, (2-methoxyethyl)(4-pyridinylmethyl)amine hydrochloride] | no NOE cross-peaks to bicelle surfactants were observed | do not bind strongly to the aqueous form of the protein | neither produced significant CSPs | prefers to reside in the water core of the mmRM | 
